Test results published in BindingDB's records for doi:10.1021/jm00058a003 (Upjohn Laboratories, 1993).

The compounds below were run against 5-HT1A receptor (Bos taurus) (assay: In vitro binding affinity towards [3H]8-OH-DPAT-labeled 5-hydroxytryptamine 1A receptor sites in bovine hippocampus.).
With `C=CC[C@H]1c2cccc(OC)c2CC[C@H]1NCCC` [(1-Allyl-5-methoxy-1,2,3,4-tetrahydro-naphthalen-2-yl)-propyl-amine] the Ki was > 1000 nM.
In the case of `C=CC[C@H]1c2ccccc2CC[C@H]1NCCC` [(1-Allyl-1,2,3,4-tetrahydro-naphthalen-2-yl)-propyl-amine], the Ki is reported as 174 nM.
Work on `C=CC[C@@H]1c2c(cccc2OC)CC[C@H]1NCCC` (relative stereo) [(trans)-(1-Allyl-8-methoxy-1,2,3,4-tetrahydro-naphthalen-2-yl)-propyl-amine] yielded a Ki of 19 nM.
With `CCCN[C@@H]1CCc2cccc(OC)c2[C@@H]1CC1CC1` [(1-Cyclopropylmethyl-8-methoxy-1,2,3,4-tetrahydro-naphthalen-2-yl)-propyl-amine] the Ki was 15 nM.
Work on `C=CC[C@H]1c2c(cccc2OC)CC[C@H]1N(CCC)CCC` [(1-Allyl-8-methoxy-1,2,3,4-tetrahydro-naphthalen-2-yl)-dipropyl-amine] yielded a Ki of 6.3 nM.
In the case of `C=CC[C@@H]1c2cccc(OC)c2CC[C@H]1NCCC` (relative stereo) [(trans)-(1-Allyl-5-methoxy-1,2,3,4-tetrahydro-naphthalen-2-yl)-propyl-amine], the Ki is reported as > 1000 nM.
For `CCCN(C)[C@@H]1CCc2cccc(OC)c2[C@@H]1CO` [[8-Methoxy-2-(methyl-propyl-amino)-1,2,3,4-tetrahydro-naphthalen-1-yl]-methanol], the Ki was 5 nM.
In the case of `C=CC[C@H]1c2c(O)cccc2CC[C@H]1NCCC` [8-Allyl-7-propylamino-5,6,7,8-tetrahydro-naphthalen-1-ol], the Ki is reported as 0.5 nM.
With `C=CC[C@H]1c2c(cccc2OC)CC[C@H]1NCC1CC1` [(1-Allyl-8-methoxy-1,2,3,4-tetrahydro-naphthalen-2-yl)-cyclopropylmethyl-amine] the Ki was 2.9 nM.
With `CCCN[C@@H]1CCc2cccc(OC)c2[C@@H]1CO` [(8-Methoxy-2-propylamino-1,2,3,4-tetrahydro-naphthalen-1-yl)-methanol] the Ki was 5.4 nM.
For `CCCN[C@@H]1CCc2cccc(OC)c2[C@H]1CC1CC1` (relative stereo) [(trans)-(1-Cyclopropylmethyl-8-methoxy-1,2,3,4-tetrahydro-naphthalen-2-yl)-propyl-amine], the Ki was 9.3 nM.
`C=CCN[C@@H]1CCc2ccccc2[C@H]1CC=C` (relative stereo) [(trans)-Allyl-(1-allyl-1,2,3,4-tetrahydro-naphthalen-2-yl)-amine] was tested, and the Ki was > 1000 nM.
Compound `C=CCN[C@@H]1CCc2ccccc2[C@@H]1CC=C` [Allyl-(1-allyl-1,2,3,4-tetrahydro-naphthalen-2-yl)-amine] has a Ki of 152 nM.
In the case of `C=CC[C@@H]1c2ccccc2CC[C@H]1NCCC` (relative stereo) [(trans)-(1-Allyl-1,2,3,4-tetrahydro-naphthalen-2-yl)-propyl-amine], the Ki is reported as > 1000 nM.
Work on `CCCN[C@@H]1CCc2cccc(OC)c2[C@@H]1CCC` [(8-Methoxy-1-propyl-1,2,3,4-tetrahydro-naphthalen-2-yl)-propyl-amine] yielded a Ki of 11 nM.
`C=CC[C@@H]1c2c(cccc2OC)CC[C@H]1NCC1CC1` (relative stereo) [(trans)-(1-Allyl-8-methoxy-1,2,3,4-tetrahydro-naphthalen-2-yl)-cyclopropylmethyl-amine] was tested, and the Ki was 4.1 nM.
With `C=CC[C@H]1c2c(cccc2OC)CC[C@H]1NCCC` [(1-Allyl-8-methoxy-1,2,3,4-tetrahydro-naphthalen-2-yl)-propyl-amine] the Ki was 1.8 nM.
Work on `C=CCN[C@@H]1CCc2cccc(OC)c2[C@@H]1CC1CC1` [Allyl-(1-cyclopropylmethyl-8-methoxy-1,2,3,4-tetrahydro-naphthalen-2-yl)-amine] yielded a Ki of 9.4 nM.
Compound `C=CCN[C@@H]1CCc2cccc(O)c2[C@@H]1CC=C` [8-Allyl-7-allylamino-5,6,7,8-tetrahydro-naphthalen-1-ol] has a Ki of 1 nM.
Compound `C=CCN[C@@H]1CCc2cccc(OC)c2[C@H]1CC1CC1` (relative stereo) [(trans)-Allyl-(1-cyclopropylmethyl-8-methoxy-1,2,3,4-tetrahydro-naphthalen-2-yl)-amine] has a Ki of 15 nM.
